Source: ChEMBL document CHEMBL5042524, “Discovery of Novel Histone Deacetylase 6 (HDAC6) Inhibitors with Enhanced Antitumor Immunity of Anti-PD-L1 Immunotherapy in Melanoma” (J Med Chem, 2022)
≈ marks a conversion by molar mass, not a printed value. Calls of active or inactive are those of the source. The rule behind the calls is not given here.

Assays:
[1] = biological target: T1, Protein deacetylase HDAC6 (Homo sapiens, UniProt Q9UBN7); assay: Inhibition of recombinant human N-terminal GST tagged HDAC6 expressed in baculovirus infected Sf9 insect cells using Ac-Leu-Gly-Lys (Ac)-AMC as substrate preincubated for 5 mins followed by substrate addition and measured after 30 mins by fluorescence microtiter plate reader assay
T1 sequence (Q9UBN7 whole entry): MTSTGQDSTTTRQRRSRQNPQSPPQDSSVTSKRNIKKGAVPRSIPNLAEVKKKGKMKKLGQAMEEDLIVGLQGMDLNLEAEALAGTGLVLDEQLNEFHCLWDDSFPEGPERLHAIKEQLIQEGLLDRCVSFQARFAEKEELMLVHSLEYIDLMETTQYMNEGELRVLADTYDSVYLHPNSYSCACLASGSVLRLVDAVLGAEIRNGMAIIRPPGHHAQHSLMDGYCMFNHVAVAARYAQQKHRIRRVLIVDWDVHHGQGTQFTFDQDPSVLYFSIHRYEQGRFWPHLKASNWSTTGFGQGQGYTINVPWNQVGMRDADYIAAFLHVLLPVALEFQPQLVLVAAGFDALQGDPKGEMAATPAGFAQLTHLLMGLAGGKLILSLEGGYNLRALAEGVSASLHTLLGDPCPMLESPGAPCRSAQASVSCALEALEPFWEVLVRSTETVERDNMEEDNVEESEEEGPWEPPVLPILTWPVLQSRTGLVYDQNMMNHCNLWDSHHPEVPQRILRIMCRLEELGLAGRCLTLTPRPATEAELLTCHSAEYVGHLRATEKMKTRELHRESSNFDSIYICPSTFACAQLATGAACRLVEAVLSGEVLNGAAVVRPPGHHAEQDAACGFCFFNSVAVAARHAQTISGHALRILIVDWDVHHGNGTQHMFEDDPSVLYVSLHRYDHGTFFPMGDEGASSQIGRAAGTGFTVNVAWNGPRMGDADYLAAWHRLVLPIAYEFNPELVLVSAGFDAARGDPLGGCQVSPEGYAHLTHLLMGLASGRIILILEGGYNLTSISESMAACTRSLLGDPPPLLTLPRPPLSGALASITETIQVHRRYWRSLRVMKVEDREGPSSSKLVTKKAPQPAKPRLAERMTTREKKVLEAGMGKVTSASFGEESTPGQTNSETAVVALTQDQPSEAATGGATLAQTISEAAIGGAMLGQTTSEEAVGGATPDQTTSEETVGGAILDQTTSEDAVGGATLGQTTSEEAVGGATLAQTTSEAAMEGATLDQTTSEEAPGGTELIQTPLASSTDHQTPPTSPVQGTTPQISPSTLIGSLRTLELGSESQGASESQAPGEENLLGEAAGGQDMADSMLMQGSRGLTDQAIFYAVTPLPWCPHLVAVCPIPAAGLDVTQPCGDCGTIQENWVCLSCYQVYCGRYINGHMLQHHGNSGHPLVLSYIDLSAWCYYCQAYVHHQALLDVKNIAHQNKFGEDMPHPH

Jurkat = assay: Induction of apoptosis in human Jurkat cells assessed as upregulation of Ku70 expression at 0.2 to 2 uM measured after 24 hrs by Western blot analysis; assay type: functional, cell-based; details: dose 0.2-2 µM
[2] = AUC(0 to t) in Sprague-Dawley rat at 2 mg/kg, iv measured upto 48 hrs by LC-MS/MS analysis; assay type: ADME, organism-based; parameters: route intravenous, dose 2 mg/kg, time <=48; details: in vivo
[3] = Potency index, ratio of CAY10603 IC50 to test compound IC50 for antiproliferative activity against human YCC3/7 cells assessed as cell growth inhibition; assay type: functional
B16-F10 [4] = assay: Antitumor activity against mouse B16-F10 cells allografted in C57BL/6 mouse assessed as tumor growth inhibition at 10 mg/kg, ip administered daily for 14 days by caliper method (Rvb= 63%); assay type: functional; details: 336 h, time 14 day, read-out: TGI
Mus musculus = assay: Myelosuppression in C57BL/6 mouse assessed as change in lymphocyte count at 50 mg/kg, IG administered once daily via gavage for 14 days; assay type: toxicity, organism-based; details: in vivo, po, 336 h, time 14 day
[5] = Oral bioavailability in Sprague-Dawley rat at 10 mg/kg measured upto 48 hrs by LC-MS/MS analysis; assay type: ADME, organism-based; details: in vivo
[6] = Inhibition of pig brain tubulin polymerization by spectrophotometric analysis; parameters: species or system Sus scrofa
[7] = AUC(0 to t) in Sprague-Dawley rat at 10 mg/kg, po measured upto 48 hrs by LC-MS/MS analysis; assay type: ADME, organism-based; parameters: route oral, dose 10 mg/kg, time <=48; details: in vivo
[8] = MRT(0 to t) in Sprague-Dawley rat at 2 mg/kg, iv measured upto 48 hrs by LC-MS/MS analysis; assay type: ADME, organism-based; details: in vivo
[9] = Toxicity in C57BL/6 mouse allografted with B16-F10 cells assessed as body weight loss at 50 mg/kg, ip administered daily for 14 days in combination with 2-(5-chloro-2-(3-cyanobenzyloxy)-4-((2-methylbiphenyl-3-yl)methoxy)benzylamino)-2-methylpropanoic acid; assay type: organism-based; details: in vivo, 336 h, time 14 day
[10] = Apparent volume of distribution in Sprague-Dawley rat at 10 mg/kg, po measured upto 48 hrs by LC-MS/MS analysis; assay type: ADME, organism-based; details: in vivo
[11] = AUC (0 to infinity) in Sprague-Dawley rat at 2 mg/kg, iv measured upto 48 hrs by LC-MS/MS analysis; assay type: ADME, organism-based; parameters: route intravenous, dose 2 mg/kg, time <=48; details: in vivo
[12] = Cmax in Sprague-Dawley rat at 2 mg/kg, iv measured upto 48 hrs by LC-MS/MS analysis; assay type: ADME, organism-based; parameters: route intravenous, dose 2 mg/kg, time <=48; details: in vivo
B16-F10 [13] = assay: Antitumour activity against mouse B16-F10 cells allografted in C57BL/6 mouse model assessed as decrease in PD-L1 expression level by Western blot analysis relative to control; assay type: functional; parameters: scale not given: the % may be the effect or the level left
[14] = Aqueous solubility of the compound incubated for 24 hrs by HPLC based shake-flask method; assay type: physicochemical; details: buffer
[15] = AUC (0 to infinity) in Sprague-Dawley rat at 10 mg/kg, po measured upto 48 hrs by LC-MS/MS analysis; assay type: ADME, organism-based; parameters: route oral, dose 10 mg/kg, time <=48; details: in vivo
[16] = Clearance in Sprague-Dawley rat at 2 mg/kg, iv measured upto 48 hrs by LC-MS/MS analysis; assay type: ADME, organism-based; details: in vivo
[17] = MRT (0 to infinity) in Sprague-Dawley rat at 2 mg/kg, iv measured upto 48 hrs by LC-MS/MS analysis; assay type: ADME, organism-based; details: in vivo
B16-F10 [18] = assay: Antitumour activity against mouse B16-F10 cells allografted in C57BL/6 mouse model assessed as increase in CD3 positive/CD8 positive cells in tumor at 50 mg/kg, ip administered for 14 days by flow cytometry analysis (Rvb= 6.65%); assay type: functional; details: time 14 day
[19] = Toxicity in C57BL/6 mouse bearing B16-F10 tumor assessed as morphological changes in heart at 50 mg/kg, ip administered for 14 days by H and E staining based microscopic analysis; assay type: organism-based; details: in vivo, 336 h, time 14 day
B16-F10 [20] = assay: Antitumor activity in mouse B16-F10 cells allografted in C57BL/6 mouse assessed as tumor growth inhibition at 50 mg/kg, ip administered for 14 days in presence of 2-(5-chloro-2-(3-cyanobenzyloxy)-4-((2-methylbiphenyl-3-yl)methoxy)benzylamino)-2-methylpropanoic acid by caliper method (Rvb= 63%); assay type: functional; details: 336 h, time 14 day, read-out: TGI
B16-F10 [21] = assay: Antitumour activity against mouse B16-F10 cells allografted in C57BL/6 mouse model assessed as increase in CD3 positive/CD4 positive cells in tumor at 50 mg/kg, ip administered for 14 days by flow cytometry analysis (Rvb= 8.73%); assay type: functional; details: time 14 day

COc1ccc(-c2ncc(C(=O)NCCCCCCC(=O)NO)[nH]2)c(OC)c1
IC50 [1]: 48 nM | Activity (Jurkat): inactive

COc1ccc(-c2ncc(C(=O)NCCCCCCC(=O)NO)s2)c(OC)c1
AUC(0-t) at 48 h [2]: 318 ng·h/mL | Ratio IC50 [3]: 12 | inhibition in vivo at 10 mg/kg (B16-F10 [4]): 69% | Activity (Mus musculus): Non-Toxic | bioavailability [5]: 8.7% | IC50 [6]: > 100000 nM | AUC(0-t) at 48 h [7]: 134 ng·h/mL | MRT last at 48 h [8]: 1.1 h | Activity [9]: Non-Toxic | Vz/F [10]: 1485.8 L/kg | AUC(0-inf) [11]: 319 ng·h/mL | Cmax [12]: 875 ng/mL | IC50 [1]: 31 nM | Activity (B16-F10 [13]): 20% | solubility thermodynamic at 24 h [14]: 41.3 µg/mL (≈ 101 µM) | AUC [15]: 138.6 ng·h/mL | clearance [16]: 105 mL/min/kg | MRT inf [17]: 1.6 h | Activity (Jurkat): inactive | Activity (B16-F10 [18]): 6.81% | Activity [19]: Non-Toxic | inhibition in vivo at 50 mg/kg (B16-F10 [20]): 58% | Activity (B16-F10 [21]): 8.72%
